Measured values: PubChem BioAssay (NCI)
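Following 48 hours of exposure in 96-well plates, responses at five concentrations were used to interpolate endpoints linearly. At the GI50, growth is halved. TGI: concentration producing complete growth inhibition.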

How the values were obtained:
Test in all cases: NCI tumour cell line growth inhibition, 48 h
KM20L2 colon = system: KM20L2 colon
TK-10 renal = system: TK-10 renal
SN12C renal = system: SN12C renal
ACHN renal = system: ACHN renal
HS 578T breast = system: HS 578T breast
MALME-3M melanoma = system: MALME-3M melanoma
HCC-2998 colon = system: HCC-2998 colon
SF-268 CNS = system: SF-268 CNS
786-0 renal = system: 786-0 renal
NCI-H23 lung = system: NCI-H23 lung
CCRF-CEM leukemia = system: CCRF-CEM leukemia
NCI-H460 lung = system: NCI-H460 lung
RPMI-8226 leukemia = system: RPMI-8226 leukemia
SF-539 CNS = system: SF-539 CNS
A498 renal = system: A498 renal
DMS 273 small cell lung = system: DMS 273 small cell lung
SF-295 CNS = system: SF-295 CNS
UO-31 renal = system: UO-31 renal
NCI-H522 lung = system: NCI-H522 lung
NCI-H226 lung = system: NCI-H226 lung
HOP-62 NSCLC = system: HOP-62 NSCLC
DMS 114 small cell lung = system: DMS 114 small cell lung
OVCAR-3 ovarian = system: OVCAR-3 ovarian
HT29 colon = system: HT29 colon
XF 498 CNS = system: XF 498 CNS
M14 melanoma = system: M14 melanoma
BT-549 breast = system: BT-549 breast
SNB-19 CNS = system: SNB-19 CNS
MDA-MB-231 breast = system: MDA-MB-231 breast
U251 CNS = system: U251 CNS
LOX IMVI melanoma = system: LOX IMVI melanoma
HL-60(TB) leukemia = system: HL-60(TB) leukemia
OVCAR-8 ovarian = system: OVCAR-8 ovarian
OVCAR-4 ovarian = system: OVCAR-4 ovarian
PC-3 prostate = system: PC-3 prostate
OVCAR-5 ovarian = system: OVCAR-5 ovarian
HCT-116 colon = system: HCT-116 colon
SK-MEL-5 melanoma = system: SK-MEL-5 melanoma
KM12 colon = system: KM12 colon
UACC-257 melanoma = system: UACC-257 melanoma
A549 NSCLC = system: A549 NSCLC
IGROV1 ovarian = system: IGROV1 ovarian
MDA-MB-435 = system: MDA-MB-435
P388/ADR leukemia = system: P388/ADR leukemia
NCI/ADR-RES ovarian = system: NCI/ADR-RES ovarian
HOP-92 NSCLC = system: HOP-92 NSCLC
CAKI-1 renal = system: CAKI-1 renal
HOP-18 NSCLC = system: HOP-18 NSCLC
EKVX NSCLC = system: EKVX NSCLC
SK-OV-3 ovarian = system: SK-OV-3 ovarian
SNB-78 CNS = system: SNB-78 CNS
UACC-62 melanoma = system: UACC-62 melanoma
MOLT-4 leukemia = system: MOLT-4 leukemia
DLD-1 colon = system: DLD-1 colon
MCF7 breast = system: MCF7 breast
SK-MEL-28 melanoma = system: SK-MEL-28 melanoma
COLO 205 colon = system: COLO 205 colon
DU-145 prostate = system: DU-145 prostate
P388 leukemia = system: P388 leukemia
SR leukemia = system: SR leukemia
RXF 393 renal = system: RXF 393 renal
K-562 leukemia = system: K-562 leukemia
SNB-75 CNS = system: SNB-75 CNS
HCT-15 colon = system: HCT-15 colon
SW-620 colon = system: SW-620 colon
SN12K1 renal = system: SN12K1 renal
SK-MEL-2 melanoma = system: SK-MEL-2 melanoma
M19-MEL melanoma = system: M19-MEL melanoma

`COc1ccc2[nH]c3c(C)c4ccncc4c(C)c3c2c1` gave a TGI (KM20L2 colon) of 7.32 µM, a GI50 (TK-10 renal) of 1.12 µM and a TGI (TK-10 renal) of 4.37 µM. It also gave a TGI (SN12C renal) of 2.54 µM, a GI50 (ACHN renal) of 0.0194 µM and a TGI (ACHN renal) of 1.51 µM. The GI50 (HS 578T breast) was 1.13 µM, the TGI (HS 578T breast) was 3.55 µM and the TGI (MALME-3M melanoma) was 5.73 µM. For the same compound, the TGI (HCC-2998 colon) was 5.57 µM, the TGI (SF-268 CNS) was 4.65 µM and the GI50 (786-0 renal) was 0.0436 µM. It also gave a TGI (786-0 renal) of 1.49 µM, a TGI (NCI-H23 lung) of 2.1 µM and a TGI (CCRF-CEM leukemia) of 4.7 µM. It also gave a TGI (NCI-H460 lung) of 0.892 µM, a TGI (RPMI-8226 leukemia) of 2.73 µM and a TGI (SF-539 CNS) of 1.45 µM. The TGI (A498 renal) was 2.1 µM, the TGI (DMS 273 small cell lung) was 1.95 µM and the TGI (SF-295 CNS) was 1.26 µM. For the same compound, the TGI (UO-31 renal) was 4.25 µM, the TGI (NCI-H522 lung) was 2.47 µM and the TGI (NCI-H226 lung) was 3.89 µM. It also gave a TGI (HOP-62 NSCLC) of 3.09 µM, a TGI (DMS 114 small cell lung) of 4.49 µM and a TGI (OVCAR-3 ovarian) of 2.46 µM. It also gave a TGI (HT29 colon) of 2.4 µM, a TGI (XF 498 CNS) of 6.66 µM and a GI50 (M14 melanoma) of 0.29 µM. It also gave a TGI (M14 melanoma) of 1.63 µM, a GI50 (BT-549 breast) of 0.757 µM and a TGI (BT-549 breast) of 2.11 µM. It also gave a TGI (SNB-19 CNS) of 7.83 µM, a GI50 (MDA-MB-231 breast) of 0.307 µM and a TGI (MDA-MB-231 breast) of 1.87 µM. For the same compound, the TGI (U251 CNS) was 4.19 µM, the TGI (LOX IMVI melanoma) was 4.29 µM and the TGI (HL-60(TB) leukemia) was 2.42 µM. For the same compound, the TGI (OVCAR-8 ovarian) was 1.92 µM, the TGI (OVCAR-4 ovarian) was 1.58 µM and the GI50 (PC-3 prostate) was 0.0843 µM. For the same compound, the TGI (PC-3 prostate) was 2.02 µM, the TGI (OVCAR-5 ovarian) was 4.07 µM and the TGI (HCT-116 colon) was 1.5 µM. It also gave a TGI (SK-MEL-5 melanoma) of 2.86 µM, a TGI (KM12 colon) of 1.68 µM and a TGI (UACC-257 melanoma) of 8.12 µM. The TGI (A549 NSCLC) was 2.15 µM, the TGI (IGROV1 ovarian) was 2.41 µM and the GI50 (MDA-MB-435) was 0.208 µM. For the same compound, the TGI (MDA-MB-435) was 1.67 µM, the TGI (P388/ADR leukemia) was 3.47 µM and the TGI (NCI/ADR-RES ovarian) was 1.96 µM. For the same compound, the TGI (HOP-92 NSCLC) was 0.935 µM, the TGI (CAKI-1 renal) was 5.49 µM and the TGI (HOP-18 NSCLC) was 6.44 µM. The TGI (EKVX NSCLC) was 2.71 µM, the TGI (SK-OV-3 ovarian) was 5.16 µM and the TGI (SNB-78 CNS) was 11.7 µM. For the same compound, the TGI (UACC-62 melanoma) was 2.54 µM, the TGI (MOLT-4 leukemia) was 0.802 µM and the TGI (DLD-1 colon) was 1.33 µM. For the same compound, the TGI (MCF7 breast) was 2.2 µM, the TGI (SK-MEL-28 melanoma) was 9.06 µM and the TGI (COLO 205 colon) was 1.6 µM. For the same compound, the GI50 (DU-145 prostate) was 0.13 µM, the TGI (DU-145 prostate) was 1.59 µM and the TGI (P388 leukemia) was 1.87 µM. The TGI (SR leukemia) was 6.83 µM, the TGI (RXF 393 renal) was 0.477 µM and the TGI (K-562 leukemia) was 1.43 µM. The TGI (SNB-75 CNS) was 2.77 µM, the TGI (HCT-15 colon) was 2.3 µM and the TGI (SW-620 colon) was 1.56 µM. For the same compound, the TGI (SN12K1 renal) was 1.31 µM and the TGI (SK-MEL-2 melanoma) was 5.36 µM.
In the case of `Cc1cc(C(=O)NCCN(C)C)c2nc3ccccc3cc2c1`, the TGI (KM20L2 colon) is reported as 4.31 µM, the TGI (SN12C renal) is reported as 7.26 µM and the TGI (MALME-3M melanoma) is reported as 4.28 µM. For the same compound, the TGI (HCC-2998 colon) was 17.7 µM, the TGI (SF-268 CNS) was 10.2 µM and the TGI (NCI-H23 lung) was 5.93 µM. For the same compound, the TGI (M19-MEL melanoma) was 4.42 µM, the TGI (CCRF-CEM leukemia) was 9.57 µM and the TGI (NCI-H460 lung) was 2.36 µM. For the same compound, the TGI (RPMI-8226 leukemia) was 5.71 µM, the TGI (SF-539 CNS) was 12.7 µM and the TGI (A498 renal) was 6.37 µM. It also gave a TGI (DMS 273 small cell lung) of 10.8 µM, a TGI (SF-295 CNS) of 3.91 µM and a TGI (UO-31 renal) of 3.93 µM. The TGI (NCI-H226 lung) was 3.33 µM, the TGI (HOP-62 NSCLC) was 6.38 µM and the TGI (DMS 114 small cell lung) was 4.12 µM. It also gave a TGI (OVCAR-3 ovarian) of 8.98 µM, a TGI (HT29 colon) of 5.7 µM and a TGI (XF 498 CNS) of 3.69 µM. The TGI (SNB-19 CNS) was 6.89 µM, the TGI (U251 CNS) was 10.7 µM and the TGI (LOX IMVI melanoma) was 3.5 µM. It also gave a TGI (HL-60(TB) leukemia) of 3.95 µM, a TGI (OVCAR-8 ovarian) of 4.28 µM and a TGI (OVCAR-4 ovarian) of 10.6 µM. It also gave a TGI (OVCAR-5 ovarian) of 8.56 µM, a TGI (HCT-116 colon) of 10.1 µM and a TGI (SK-MEL-5 melanoma) of 3.6 µM. It also gave a TGI (KM12 colon) of 14.1 µM, a TGI (UACC-257 melanoma) of 5.02 µM and a TGI (A549 NSCLC) of 6.81 µM. It also gave a TGI (IGROV1 ovarian) of 12.6 µM, a TGI (P388/ADR leukemia) of 2.18 µM and a TGI (NCI/ADR-RES ovarian) of 4.62 µM. The TGI (HOP-92 NSCLC) was 5.27 µM, the TGI (CAKI-1 renal) was 1.29 µM and the TGI (HOP-18 NSCLC) was 7.16 µM. The TGI (EKVX NSCLC) was 0.971 µM, the TGI (SK-OV-3 ovarian) was 8.97 µM and the TGI (SNB-78 CNS) was 14.5 µM. For the same compound, the TGI (UACC-62 melanoma) was 5.05 µM, the TGI (MOLT-4 leukemia) was over 21.8 µM and the TGI (DLD-1 colon) was 10.9 µM. For the same compound, the TGI (MCF7 breast) was 8 µM, the TGI (SK-MEL-28 melanoma) was 10.7 µM and the TGI (COLO 205 colon) was 3.54 µM. For the same compound, the TGI (P388 leukemia) was 1.68 µM, the TGI (RXF 393 renal) was 4.32 µM and the TGI (K-562 leukemia) was over 31.3 µM. The TGI (SNB-75 CNS) was 11.8 µM, the TGI (HCT-15 colon) was 11.4 µM and the TGI (SW-620 colon) was 8.88 µM. It also gave a TGI (SN12K1 renal) of 2.6 µM and a TGI (SK-MEL-2 melanoma) of 7.26 µM.
